Reference: PubChem BioAssay (NCI)
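Cells were grown in 96-well plates and exposed to each compound for 48 hours at five concentrations; endpoints were interpolated linearly between bracketing concentrations, or set to the highest concentration if not reached. GI50: concentration for 50% inhibition of growth. At the TGI there is no net growth.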

Key:
Experiment in all cases: NCI tumour cell line growth inhibition, 48 h
[1] = test system: A498 renal
[2] = test system: OVCAR-3 ovarian
[3] = test system: CAKI-1 renal
[4] = test system: OVCAR-5 ovarian
[5] = test system: SR leukemia
[6] = test system: SF-539 CNS
[7] = test system: HS 578T breast
[8] = test system: IGROV1 ovarian
[9] = test system: NCI-H522 lung
[10] = test system: LOX IMVI melanoma

SMILES	GI50 [1] [µM]	TGI [1] [µM]	GI50 [2] [µM]	TGI [2] [µM]	GI50 [3] [µM]	GI50 [4] [µM]	TGI [4] [µM]	GI50 [5] [µM]	TGI [5] [µM]	GI50 [6] [µM]	TGI [6] [µM]	GI50 [7] [µM]	TGI [7] [µM]	GI50 [8] [µM]	TGI [8] [µM]	GI50 [9] [µM]	TGI [9] [µM]	GI50 [10] [µM]	TGI [10] [µM]	TGI [3] [µM]
COc1ccc2nc(-c3ccccc3)cc(Nc3ccc(/C(C)=N/O)cc3)c2c1	2.03	4.98	2.87	> 100	2.5	5.5	> 100	3.82	> 100	0.35	3.05	2.24	5.31	13.4	> 22	14.9	> 24.6			
COc1ccc(/C=C/c2nc(N3CCOCC3)c3cc(F)c(F)cc3n2)cc1OC	3.41	> 100	6.08	> 100	3.23	6.54	> 100			> 100	> 100	54.8	> 100	47.4	> 100	6.86	> 100	5.07	> 100	> 100
COc1ccc(-c2nnc3n(C)c(=O)c4ccccc4n23)cc1O	6.42	36.6	0.162	12.7	1.06	15.8	> 100	0.1	> 100	0.596	6.68	0.964	35.9	2.69	> 86.3	0.0827	1.98	1.25	> 100	> 100
COc1cc2c(cc1OCCCCCCNC(=O)c1cc3ccccc3[nH]1)N=CC1CCCN1C2=O (configuration not stated)	26.3	64.2	6.17	> 100		> 100	> 100			17	33.4	30.6	> 100	17.4	> 100	18.7	88.1	31.8	> 100	
COC(=O)C1CC2(c3ccc(C)cc3)C(c3ccc(C)cc3)=C(c3ccc(C)cc3)C1(c1ccc(C)cc1)S2=O (configuration not stated)	4.88	50.5	> 100	> 100	> 100	> 100	> 100			> 100	> 100	48.6	> 100	98.4	> 100	96.3	> 100	> 100	> 100	> 100
Cc1cc(C)cc(Nc2nccc(-c3c(-c4ccc(F)cc4)ncn3C3CCNCC3)n2)c1			1.39	2.87	1.24	1.67	3.98	1.01	3.61	1.75	3.25	1.96	4.36	0.312	1.67	1.5	3.45	1.54	2.88	2.72
COc1cc(C2[C@H]3C(=O)N(c4ccc(Cc5ccc(N6C(=O)[C@@H]7ON(c8ccccc8)C(c8cc(OC)c(OC)c(OC)c8)[C@@H]7C6=O)cc5)cc4)C(=O)[C@H]3ON2c2ccccc2)cc(OC)c1OC (some centres not stated)		> 100		> 100			> 100		> 100		> 100				> 100		> 100		> 100	> 100
CC(=O)NNC(=O)c1nn(-c2ccc(Cl)cc2)cc1OC(C)=O	22.2	91.7	18.8	> 100	9.3	> 83.5	> 100			21.9	> 100	40	> 100	21.5	> 100	35.5	> 100	22.5	> 100	82.6
O=C1C[C@@H](c2ccccc2)NCCCCN(O)CCCN1		> 100		> 100			> 100				> 100		> 100		> 100		> 100		> 100	> 100
Cn1cc(-c2csc(-c3cn(CCN4CCOCC4)c4ccc(F)cc34)n2)c2cccnc21	5.66	48.5	2.71	9.27		4.59	> 100	2.29	6.9	3.16	16.2	3.75	> 100	2.91	14.1	2.11	6.63			
CC(=O)OCCC/C(=C\c1ccc2ccccc2c1)[N+](=O)[O-]	1.04	2.39	1.52	3.08	1.5	1.75	3.42	1.67	> 100	1.76	3.32	1.09	5.19	1.89	3.98	0.353	1.77			3.28
COc1cc(C2c3cc4c(cc3C3OC(=O)C2C3CO)OCO4)cc(OC)c1OC (configuration not stated)	< 0.01	0.0605			0.0511	0.0539	> 100			< 0.0122	0.0668	0.043	> 100	0.035	> 100	< 0.01	0.0351	< 0.01	> 100	> 100
NC1=CC(=O)C(=O)c2cccnc21	10.2	22.7	12.9	29.4	8.45	17.8	34.3			7.59	20.3	5.16	55.1	7.91	23.1	7.32	22.6	1.7	4.38	31.2
O=S(=O)(NC(=S)Nc1ccccc1)c1ccc(N2N=C3c4ccccc4CC3C2c2ccc(Cl)cc2)cc1 (configuration not stated)			46.3	> 100	26.1			14.7	36.6	24.2	45.7	30	68.2	20.2	49.3	18.1	38.6	19.5	39	91.4
